{"source": "patent US20130071330A1", "about": "“METHODS OF IDENTIFYING AGENTS EFFECTIVE TO TREAT COGNITIVE DECLINE AND DISEASES ASSOCIATED THEREWITH” (priority 2010, published 2013)", "key": {"[1]": {"tested_on": "mice", "assay": "Fear conditioning assay (Abeta oligomer-induced memory deficit)", "assay_type": "in vivo", "source_text": "The formation of contextual memories is dependent upon the integrity of medial temporal lobe structures such as the hippocampus. […] Animals that show good learning will express an increase in freezing behavior when placed back into the same context. This freezing is absent in a novel context."}, "[2]": {"tested_on": "Abeta oligomer effects on membrane trafficking", "assay": "MTT membrane trafficking (formazan exocytosis) assay with Abeta oligomers in mature primary neurons", "assay_type": "cell-based, rat", "conditions": "for block of Abeta oligomer-caused decrease of intracellular formazan-filled vesicles (puncta): neurons 3 weeks in vitro, for antibody stoichiometric amount (3 μM Aβ, 1.5 μM IgG), added prior to oligomers", "procedure": "(§1) MTT assay Primary neurons from E18 Sprague-Dawley rat embryos were plated at optimized concentrations in 384 well plates in NB media (Invitrogen). Neurons were maintained in cultures for 3 weeks, with twice weekly feeding of NB media with N2 supplement (Invitrogen). Vehicle or Abeta oligomer preparations (1.5 uM), followed by compounds were added to cells and incubated for 1 to 24 hr at 37° C. in 5% CO2. MTT reagent (3-(4,5-dimethylthizaol-2-yl)-2,5diphenyl tetrazolium bromide) reagent (Roche Molecular Biochemicals) was reconstituted in phosphate buffered saline to 5 mg/ml. 10 ul of MTT labeling reagent was added to each well and incubated at 37° C. for 1 h, then imaged.\nEach assay plate was formatted so that compounds were tested with and without Abeta on each plate.\nExperimental controls: Abeta 1-42 oligomers were made and used as positive controls. The oligomers can be made by any method, such as published methods (Dhalgren et al., '02, LeVine '04, Shrestha et al., '06, Puzzo et al., '05, Barghorn et al., '05, Johansson et al., '06). […] Negative controls included vehicle-treated neurons as well as neurons treated with Compound Z. These controls, on each plate, serve as normalization tools to calibrate assay performance on a plate-by-plate basis.\nStatistical software and Analysis: Data handling and analysis was accomplished by Cellomics VTI image analysis software and STORE automated database software. Statistical comparisons were made via pairwise Tukey-Kramer analysis to determine the significance of the separation between compound+Abeta oligomers from Abeta alone, and between compound alone from vehicle. […] Power analysis was set for a number of replicate screening wells that will minimize false negatives such as N=4. Rank ordering of compounds was done on the basis of secondary assay mechanism of action and physicochemical properties of the hit structures.\nAbeta 1-42 oligomers made according to published methods (Dhalgren et al., '02, LeVine '04, Shrestha et al., '06, Puzzo et al., '05, Barghorn et al., '05, Johansson et al., '06) or isolated from human brain tissue (Walsh et al., '02, Lesne et al., '06, Shankar et al '08) served as positive controls. Toxicity was monitored in each image-based assay via quantification of nuclear morphology visualized with the DNA binding dye DAPI (Invitrogen). Nuclei that were fragmented were considered to be in late stage apoptosis (Majno and Joris '95). Peptide lots producing unusual peptide size ranges or significant toxicity at standard concentrations on neurons were rejected.\nImage Processing: Images are captured and analyzed with the Cellomics VTI automated microscope platform. For statistical analysis, a Tukey-Kramer pair-wise comparison with unequal variance is used.\nPrimary rat neurons grown for at least 3 weeks in vitro were chosen as the basis for this screening assay. […] More complex systems such as acute or organotypic brain slices are very useful but not amenable to high throughput screening. […] For this reason, primary neuronal cultures were chosen because of their ability to be used in high throughput screens and fidelity to what occurs in vivo.\nThe exocytosis assay was adapted for use with mature primary neuronal cultures grown for 3 weeks in vitro."}, "[3]": {"tested_on": "Abeta assemblies isolated from patients, membrane trafficking", "assay": "Membrane trafficking assay with Abeta assemblies isolated from AD or normal patients", "assay_type": "cell-based, rat", "conditions": "FIG. 4", "procedure": "as §1\nAbeta assemblies were isolated from patients with Alzheimer's Disease (AD) or from normal patients. The Abeta assemblies were tested for their ability to modulate membrane trafficking. […] The assay was performed as described herein."}}, "note": "Entries after “also recorded” stand apart in the source; their conditions may differ.", "data": [{"molecule": "COc1cc(CCC(C)NCc2ccc(C(F)(F)F)cc2)ccc1O", "note": "(centres unmarked) [Compound Z]", "values": [{"measurement": "block of oligomer-mediated memory deficits (contextual fear conditioning)", "setting": "[1]; 2 pmol dose, given prior to Abeta (200 nM), tested about 24 hours after training, p<0.05", "result": "completely blocked"}, {"measurement": "block of oligomer effects on memory, dose dependence", "setting": "[1]; administered prior to Abeta oligomer administration", "result": "blocked oligomer effects on memory in a dose-dependent manner"}, {"measurement": "adverse behavioral changes", "setting": "[1]; any dose", "result": "No adverse behavioral changes were observed"}, {"measurement": "effect of compound alone on memory", "setting": "[1]; without Abeta, data not shown", "result": "No effect"}, {"measurement": "EC50", "setting": "[2]; Neuron, read-out: inhibits oligomer effects on membrane trafficking, EC50, primary rat neurons, Abeta oligomers, FIG. 2B", "result": 7, "unit": "µM"}, {"measurement": "block of Abeta oligomer-caused decrease of intracellular formazan-filled vesicles (puncta)", "setting": "[2]", "result": "inhibits oligomer effects on membrane trafficking; also recorded: effective at stopping Abeta oligomer mediated effects on membrane trafficking"}, {"measurement": "effect on Abeta assemblies isolated from age-matched normal individuals", "setting": "[3]; Abeta assemblies from age-matched normal individuals", "result": "no effect"}, {"measurement": "block of trafficking effects of AD-brain derived Abeta assemblies", "setting": "[3]; IMW (10-100 KDa) Abeta assemblies isolated from AD patients", "result": "significantly blocked"}]}, {"molecule": "O[C@H]1[C@H](O)[C@@H](O)[C@H](O)[C@@H](O)[C@@H]1O", "note": "[scyllo-inositol, reference compound]", "values": [{"measurement": "block of Abeta oligomer-caused decrease of intracellular formazan-filled vesicles (puncta)", "setting": "[2]", "result": "none were active"}]}, {"molecule": "C[C@]12N[C@H](Cc3ccccc31)c1ccccc12", "note": "[MK-801, reference compound]", "values": [{"measurement": "block of Abeta oligomer-caused decrease of intracellular formazan-filled vesicles (puncta)", "setting": "[2]", "result": "none were active"}]}, {"molecule": "C[N+](C)(C)CCCCCC[N+](C)(C)C", "note": "[hexamethonium bromide, reference compound]", "values": [{"measurement": "block of Abeta oligomer-caused decrease of intracellular formazan-filled vesicles (puncta)", "setting": "[2]", "result": "none were active"}]}]}
